What was measured:
PTGER4 (EP4) = PTGER4 (EP4) (Homo sapiens (Human), UniProt P35408)
Excerpt: The system is based on the Enzyme Fragment Complementation Technology. Two complementing fragments of the b-galactosidase enzyme are expressed within stably transfected cells. The larger portion of b-gal, termed EA for Enzyme Acceptor, is fused to the C-terminus of b-arrestin 2. The smaller fragment, termed ProLink™ tag, is fused to PTGER2 (EP2) or PTRGER4 (EP4) at the C-terminus. Upon activation, b-arrestin is recruited which forces the interaction of ProLink and EA, allowing complementation of the two fragments of b-gal and the formation of a functional enzyme which is capable of hydrolysing the substrate and generating a chemiluminescent signal.
Plate is incubated at 37° C., 5% CO2 for 24 hours.
Stock solutions of test compounds are made at a concentration of 10 mM in DMSO, and serially diluted in DMSO to concentrations required for inhibition dose response curves (tested concentration range 10 μM-2 nM or 1 μM-0.2 nM).
Five microliters of diluted compounds are transferred into the assay plate. Plate is pre-incubated 15 minutes at 37° C. Then five microliters of PGE2 (final conc. 20 nM) are transferred into the assay plate. Plate is incubated 120 minutes at 37° C.
Twelve I of reagent are transferred to the assay plate and incubate for 1 hour at RT in the dark. Luminescence counts are read on a BMG Fluostar Optima reader according to manufacturer's instructions.
For each compound concentration calculate of the percentage of activity compared to DMSO control value as average ±STDEV. (each concentration is measured in duplicate)

EP4 = EP4 (Homo sapiens (Human), UniProt P35408); assay: hEP4 cAMP assay (BT549 breast cancer cells, HTRF cAMP); assay type: cell-based; conditions: antagonistic activity, PGE2 6 nM
How it was run: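 cAMP accumulation quantified by HTRF competition between cellular cAMP and d2-labeled cAMP for cryptate anti-cAMP antibody. Cells: endogenously EP4-expressing BT549, buffer with 2 mM IBMX; 45 min RT compound preincubation preceded 30 min RT challenge with PGE2 at 6 nM final.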

EP2 = EP2 (Homo sapiens (Human), UniProt P43116); assay: hEP2 cAMP assay (SF295 glioblastoma cells, HTRF cAMP); assay type: cell-based; conditions: antagonistic activity
How it was run: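 PGE2-driven cAMP accumulation was measured by HTRF in SF295 cells, which express endogenous EP2 only. Cells in assay buffer with 2 mM IBMX were pre-incubated 45 min at RT, then incubated 30 min at RT. Detection used competition between cellular cAMP and d2-cAMP for a cryptate anti-cAMP antibody.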

PTGER2 (EP2) = PTGER2 (EP2) (Homo sapiens (Human), UniProt P43116); assay: hEP2 b-arrestin assay (PathHunter HEK 293 PTGER2 b-arrestin cells); assay type: cell-based; conditions: antagonistic activity, beta-arrestin assay; read-out: hEP2 b-arr IC50
Protocol: Plate is pre-incubated 15 minutes at 37° C. Then five microliters of PGE2 (final conc. 5 μM) are transferred into the assay plate. Plate is incubated 120 minutes at 37° C.
(each concentration is measured in duplicate)

Sequence of EP2 (P43116 whole entry): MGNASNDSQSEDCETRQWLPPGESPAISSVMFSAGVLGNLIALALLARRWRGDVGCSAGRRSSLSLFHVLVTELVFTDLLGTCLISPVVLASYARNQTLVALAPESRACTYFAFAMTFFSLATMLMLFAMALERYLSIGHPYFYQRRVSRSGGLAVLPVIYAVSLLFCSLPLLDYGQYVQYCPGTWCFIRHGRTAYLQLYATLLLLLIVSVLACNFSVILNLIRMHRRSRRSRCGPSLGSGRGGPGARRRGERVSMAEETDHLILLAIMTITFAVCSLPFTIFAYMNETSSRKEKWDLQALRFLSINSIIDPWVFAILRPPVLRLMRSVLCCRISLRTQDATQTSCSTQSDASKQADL
Sequence of PTGER2 (EP2) (P43116 whole entry): as above
Sequence of EP4 (P35408 whole entry): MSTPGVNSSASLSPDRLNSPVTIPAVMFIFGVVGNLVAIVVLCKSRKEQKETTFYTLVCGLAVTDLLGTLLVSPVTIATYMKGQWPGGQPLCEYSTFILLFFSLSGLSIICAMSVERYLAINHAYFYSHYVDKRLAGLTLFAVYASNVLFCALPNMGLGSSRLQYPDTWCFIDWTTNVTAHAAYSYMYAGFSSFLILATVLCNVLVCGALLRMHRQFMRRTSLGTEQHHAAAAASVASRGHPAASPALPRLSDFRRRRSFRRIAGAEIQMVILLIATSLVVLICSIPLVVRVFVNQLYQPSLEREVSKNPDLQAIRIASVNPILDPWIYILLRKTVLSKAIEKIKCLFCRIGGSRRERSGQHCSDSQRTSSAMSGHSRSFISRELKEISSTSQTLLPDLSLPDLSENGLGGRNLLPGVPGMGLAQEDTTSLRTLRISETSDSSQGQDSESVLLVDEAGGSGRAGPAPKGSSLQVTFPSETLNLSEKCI
Sequence of PTGER4 (EP4) (P35408 whole entry): as above

| SMILES | IC50 (PTGER4 (EP4)) [nM] | IC50 (EP4) [nM] | IC50 (EP2) [nM] | IC50 (PTGER2 (EP2)) [nM] |
| --- | --- | --- | --- | --- |
| CCOc1cc(-c2cc(NCCc3ccc4ccccc4c3C)ncn2)sc1CC(=O)O [Ex 148] | 46 | 141 | 126 | 174 |
| CCOc1cc(-c2cc(NCCc3c(OC)cc4ccccc4c3C)ncn2)ccc1CC(=O)O [Ex 61] | 28 | 46 | 214 | 148 |
| CCOc1cc(-c2cc(NCCc3ccc4sccc4c3C)ncn2)sc1C(=O)O [Ex 20] | 74 | 12 | 11 | 27 |

Reference: US11839613B2, “Pyrimidine derivatives as PGE2 receptor modulators” (IDORSIA PHARMACEUTICALS LTD, priority 2017, dated 2023)
